This note sets out measurements from ChEMBL document CHEMBL4342498, “Design and Discovery of an Orally Efficacious Spiroindolinone-Based Tankyrase Inhibitor for the Treatment of Colon Cancer” (J Med Chem, 2020).

SMILES strings stand for the structures. ≈ marks a conversion by molar mass, not a printed value.

For one data set, the target named is T1, Poly [ADP-ribose] polymerase tankyrase-2 (Homo sapiens, UniProt Q9H2K2).
T1 sequence (Q9H2K2 whole entry): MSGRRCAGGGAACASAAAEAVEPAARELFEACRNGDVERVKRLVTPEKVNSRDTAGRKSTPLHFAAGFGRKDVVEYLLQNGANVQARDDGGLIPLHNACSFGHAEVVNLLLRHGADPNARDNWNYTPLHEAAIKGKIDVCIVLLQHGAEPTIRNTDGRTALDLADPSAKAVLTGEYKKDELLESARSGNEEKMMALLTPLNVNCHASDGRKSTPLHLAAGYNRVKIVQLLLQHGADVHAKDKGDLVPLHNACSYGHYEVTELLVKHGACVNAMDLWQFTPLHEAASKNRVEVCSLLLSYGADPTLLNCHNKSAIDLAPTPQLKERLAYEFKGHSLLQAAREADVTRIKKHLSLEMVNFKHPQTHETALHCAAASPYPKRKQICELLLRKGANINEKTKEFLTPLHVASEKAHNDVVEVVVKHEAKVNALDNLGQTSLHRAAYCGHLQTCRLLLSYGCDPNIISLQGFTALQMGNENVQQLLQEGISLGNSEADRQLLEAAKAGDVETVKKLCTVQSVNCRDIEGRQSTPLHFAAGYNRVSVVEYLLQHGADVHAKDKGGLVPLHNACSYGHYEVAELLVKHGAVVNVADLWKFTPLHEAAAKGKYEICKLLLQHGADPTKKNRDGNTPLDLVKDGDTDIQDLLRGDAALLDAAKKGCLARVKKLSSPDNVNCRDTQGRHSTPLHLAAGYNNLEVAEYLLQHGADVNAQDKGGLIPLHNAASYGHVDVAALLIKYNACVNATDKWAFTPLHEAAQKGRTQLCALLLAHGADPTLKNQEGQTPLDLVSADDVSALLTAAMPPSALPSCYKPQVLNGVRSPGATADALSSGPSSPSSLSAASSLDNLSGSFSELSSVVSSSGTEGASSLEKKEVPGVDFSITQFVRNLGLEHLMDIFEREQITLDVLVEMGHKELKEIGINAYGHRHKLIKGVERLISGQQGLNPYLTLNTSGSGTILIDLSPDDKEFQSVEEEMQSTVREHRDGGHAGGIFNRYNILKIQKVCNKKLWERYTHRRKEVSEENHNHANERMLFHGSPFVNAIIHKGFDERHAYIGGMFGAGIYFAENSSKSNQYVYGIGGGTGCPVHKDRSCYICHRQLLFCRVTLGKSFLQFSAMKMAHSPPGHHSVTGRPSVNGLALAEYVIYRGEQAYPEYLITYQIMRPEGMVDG
Put plainly: Inhibition of recombinant human N-terminal TEV cleavage site-fused/FLAG-poly his-tagged TNKS2 ARC5-SAM-PARP domain (613 to 1166 residues) expressed in Escherichia coli assessed as reduction in auto-PARylation preincubated for 10 mins followed by biotinylated-NAD+ addition and measured after 45 mins by ELISA.
Settings: not given
What is called IC50 is the concentration that gives 50% inhibition. Turning to `COc1cc(F)c2c(c1)N(C)C(=O)C21CCN(c2nc3c(c(=O)[nH]2)CCCN3C)CC1`, the IC50 was determined as 6.2 nM.

`CN1CCN(CCOc2cc(F)c3c(c2)N(C)C(=O)C32CCN(c3nc4c(c(=O)[nH]3)CCCN4C)CC2)CC1`: the IC50 was found to be 18.7 nM.

For the next data set, the system named is COLO 320DM. Description: Antiproliferative activity against human COLO320DM cells assessed as inhibition of cell growth measured after 4 days by CellTiter-Glo assay. The data set is classed as functional. The conditions noted are these: 96 h. (Cellular ATP, detected with luciferase, serves as a proxy for viable cell number.)
Broadly, the GI50 is the concentration giving 50% growth inhibition. Consider `COc1cc(F)c2c(c1)N(C)C(=O)C21CCN(c2nc3c(c(=O)[nH]2)CCCN3C)CC1`, for which the GI50 came out at 130 nM.

Regarding `CN1CCN(CCOc2cc(F)c3c(c2)N(C)C(=O)C32CCN(c3nc4c(c(=O)[nH]3)CCCN4C)CC2)CC1`, the GI50 worked out at 740 nM.

Test system in a further data set: not listed separately
Put plainly: Stability in mouse liver microsomes assessed as parent compound remaining at 1 uM measured after 60 mins in presence of NADPH by LC-MS/MS analysis. The class given is ADME, Microsome. The conditions noted are these: read-out: Stability. In general terms: Microsomes from liver hold many membrane-bound enzymes, among them those of drug oxidation.
Turning to `COc1cc(F)c2c(c1)N(C)C(=O)C21CCN(c2nc3c(c(=O)[nH]2)CCCN3C)CC1`, the remaining at 1 h, 1 µM was determined as 0%.

As to `CN1CCN(CCOc2cc(F)c3c(c2)N(C)C(=O)C32CCN(c3nc4c(c(=O)[nH]3)CCCN4C)CC2)CC1`, the remaining at 1 h, 1 µM is 83.5%.

Test system in another data set: not listed separately
Put plainly: Stability in human liver microsomes assessed as parent compound remaining at 1 uM measured after 60 mins in presence of NADPH by LC-MS/MS analysis. The class given is ADME, Microsome. To be noted: read-out: Stability.
Consider `COc1cc(F)c2c(c1)N(C)C(=O)C21CCN(c2nc3c(c(=O)[nH]2)CCCN3C)CC1`, for which the remaining at 1 h, 1 µM amounted to 1.9%.

For the molecule `CN1CCN(CCOc2cc(F)c3c(c2)N(C)C(=O)C32CCN(c3nc4c(c(=O)[nH]3)CCCN4C)CC2)CC1`, the remaining at 1 h, 1 µM stood at 56.5%.

The subject of another data set is MDR1. Put plainly: Efflux ratio of permeability across basolateral to apical side over apical to basolateral side in MDCK2-MDR1 cells. The conditions noted are these: dog, MDCK-MDR1. The data set is classed as ADME, cell-based, Canis lupus familiaris.
One may read the efflux ratio as the permeability from basolateral to apical divided by that in the opposite direction, in the common usage. On to `COc1cc(F)c2c(c1)N(C)C(=O)C21CCN(c2nc3c(c(=O)[nH]2)CCCN3C)CC1`, for which the efflux ratio was 2.7.

For the molecule `CN1CCN(CCOc2cc(F)c3c(c2)N(C)C(=O)C32CCN(c3nc4c(c(=O)[nH]3)CCCN4C)CC2)CC1`, the efflux ratio came to 86.4.

Test system in a further data set: not listed separately
Description: Efflux ratio of permeability across basolateral to apical side over apical to basolateral side in MDCK2 cells. To be noted: dog, mdck. The data set is classed as ADME, cell-based, Canis lupus familiaris, MDCK-II.
`COc1cc(F)c2c(c1)N(C)C(=O)C21CCN(c2nc3c(c(=O)[nH]2)CCCN3C)CC1`: the efflux ratio was found to be 1.1.

As to `CN1CCN(CCOc2cc(F)c3c(c2)N(C)C(=O)C32CCN(c3nc4c(c(=O)[nH]3)CCCN4C)CC2)CC1`, the efflux ratio was 13.1.

Test system in a further data set: not listed separately
Put plainly: Net efflux ratio of permeability across basolateral to apical side over apical to basolateral side in MDCK2-MDR1 cells to MDCK2 cells. The data set is classed as ADME, cell-based, Canis lupus familiaris. To be noted: dog, mdck.
`COc1cc(F)c2c(c1)N(C)C(=O)C21CCN(c2nc3c(c(=O)[nH]2)CCCN3C)CC1`: the Ratio stood at 2.5.

With `CN1CCN(CCOc2cc(F)c3c(c2)N(C)C(=O)C32CCN(c3nc4c(c(=O)[nH]3)CCCN4C)CC2)CC1`, the Ratio came to 6.6.

The target of the next data set is T2, Poly [ADP-ribose] polymerase tankyrase-1 (Homo sapiens, UniProt O95271).
T2 sequence (O95271 whole entry): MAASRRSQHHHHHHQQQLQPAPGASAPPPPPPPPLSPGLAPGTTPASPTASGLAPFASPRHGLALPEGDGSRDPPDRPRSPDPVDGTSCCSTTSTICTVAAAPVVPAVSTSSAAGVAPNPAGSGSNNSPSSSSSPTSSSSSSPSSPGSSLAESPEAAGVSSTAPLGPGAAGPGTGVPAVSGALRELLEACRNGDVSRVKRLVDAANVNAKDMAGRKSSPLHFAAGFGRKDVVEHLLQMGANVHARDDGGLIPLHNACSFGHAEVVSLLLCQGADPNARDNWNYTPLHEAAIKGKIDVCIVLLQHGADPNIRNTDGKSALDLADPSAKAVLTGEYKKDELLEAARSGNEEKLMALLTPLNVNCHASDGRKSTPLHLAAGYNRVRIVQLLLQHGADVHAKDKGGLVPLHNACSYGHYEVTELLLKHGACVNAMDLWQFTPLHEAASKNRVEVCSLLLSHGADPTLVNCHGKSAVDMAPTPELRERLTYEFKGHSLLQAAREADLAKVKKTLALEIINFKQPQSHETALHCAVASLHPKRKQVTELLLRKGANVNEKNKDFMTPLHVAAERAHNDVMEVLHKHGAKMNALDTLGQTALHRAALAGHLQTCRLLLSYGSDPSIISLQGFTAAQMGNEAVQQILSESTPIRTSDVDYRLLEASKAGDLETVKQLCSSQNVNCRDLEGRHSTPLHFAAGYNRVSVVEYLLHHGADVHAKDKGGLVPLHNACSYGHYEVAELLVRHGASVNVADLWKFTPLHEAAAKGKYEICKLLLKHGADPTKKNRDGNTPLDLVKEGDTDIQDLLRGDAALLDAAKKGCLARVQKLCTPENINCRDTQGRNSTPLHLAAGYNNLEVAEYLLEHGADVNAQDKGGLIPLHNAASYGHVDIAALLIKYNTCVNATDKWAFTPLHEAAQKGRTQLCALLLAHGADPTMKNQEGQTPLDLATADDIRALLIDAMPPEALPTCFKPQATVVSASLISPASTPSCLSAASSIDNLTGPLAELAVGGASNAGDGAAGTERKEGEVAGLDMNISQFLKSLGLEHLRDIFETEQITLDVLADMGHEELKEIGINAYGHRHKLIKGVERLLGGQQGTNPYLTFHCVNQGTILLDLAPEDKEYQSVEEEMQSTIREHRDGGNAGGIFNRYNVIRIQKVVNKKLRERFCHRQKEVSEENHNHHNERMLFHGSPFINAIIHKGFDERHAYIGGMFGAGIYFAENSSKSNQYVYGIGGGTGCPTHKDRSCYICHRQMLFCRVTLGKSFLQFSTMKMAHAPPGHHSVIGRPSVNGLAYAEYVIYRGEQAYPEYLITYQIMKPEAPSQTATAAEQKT
Assay: not given
Settings: not given
Molecule `COc1cc(F)c2c(c1)N(C)C(=O)C21CCN(c2nc3c(c(=O)[nH]2)CCCN3C)CC1` came in with an IC50 of 4.4 nM.

The molecule `CN1CCN(CCOc2cc(F)c3c(c2)N(C)C(=O)C32CCN(c3nc4c(c(=O)[nH]3)CCCN4C)CC2)CC1` registered an IC50 of 7.9 nM.

In a further data set the target is T3, Tankyrase 1/2 (Homo sapiens, UniProt Q9H2K2+O95271).
T3 sequence (Q9H2K2 whole entry): T1 sequence (Q9H2K2 whole entry)
T3 sequence (O95271 whole entry): T2 sequence (O95271 whole entry)
Assay: not given
To be noted: hek293.
With `COc1cc(F)c2c(c1)N(C)C(=O)C21CCN(c2nc3c(c(=O)[nH]2)CCCN3C)CC1`, the IC50 is reported as 0.2 nM.

Consider `CN1CCN(CCOc2cc(F)c3c(c2)N(C)C(=O)C32CCN(c3nc4c(c(=O)[nH]3)CCCN4C)CC2)CC1`, for which the IC50 came to 1.2 nM.

A further data set has as its target T3, Tankyrase 1/2.
Assay: not given
Settings: not given
In turn, `COc1cc(F)c2c(c1)N(C)C(=O)C21CCN(c2nc3c(c(=O)[nH]2)CCCN3C)CC1` registered an IC50 of 4.5 nM.

`CN1CCN(CCOc2cc(F)c3c(c2)N(C)C(=O)C32CCN(c3nc4c(c(=O)[nH]3)CCCN4C)CC2)CC1`: the IC50 turned out to be 6.3 nM.

Test system in the next data set: not listed separately
Description: physchem. To be noted: phosphate buffered saline, pH 7.4.
As a reminder, the solubility is the dissolved amount per volume that the medium holds. For the molecule `COc1cc(F)c2c(c1)N(C)C(=O)C21CCN(c2nc3c(c(=O)[nH]2)CCCN3C)CC1`, the solubility at 1 h, 200 µM worked out at 4.8 µg/mL (≈ 11.2 µM).

For `CN1CCN(CCOc2cc(F)c3c(c2)N(C)C(=O)C32CCN(c3nc4c(c(=O)[nH]3)CCCN4C)CC2)CC1`, the solubility at 1 h, 200 µM amounted to 188 µg/mL (≈ 348 µM).
